Where two headings read alike, the source gives them in different places.
Columns and labels:
[1] = molecular target: T1, human NNMT (Homo sapiens, UniProt P40261); experiment: Fluorescence-based NNMT enzymatic assay (human enzyme); format: biochemical; conditions: for IC50: read-out: hNNMT IC50; for reduction in potency on hNNMT: relative to (1)
T1 sequence (P40261 1-264): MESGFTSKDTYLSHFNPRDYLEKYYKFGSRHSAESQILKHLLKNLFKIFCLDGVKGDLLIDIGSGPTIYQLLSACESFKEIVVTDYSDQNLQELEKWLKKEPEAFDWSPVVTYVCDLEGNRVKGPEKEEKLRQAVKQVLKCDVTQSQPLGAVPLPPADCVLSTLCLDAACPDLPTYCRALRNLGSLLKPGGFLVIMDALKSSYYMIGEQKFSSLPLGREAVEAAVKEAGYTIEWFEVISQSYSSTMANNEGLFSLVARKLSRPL
Description: (§1) Experimental Procedures S2: Fluorescence-based NNMT enzymatic assay
(§2) NNMT activity was measured by fluorescence based assay. The product MNA formed in the reaction reacts with acetophenone in the presence of KOH and formic acid and forms a fluorescent product 2, 7- naphthyridine. The fluorescence intensity measured with excitation at 375nm and emission at 430nm. Inhibitors were screened using human, mouse and monkey NNMT enzymes. Different concentrations of inhibitors were pre-incubated along with 5ng/well of human NNMT enzyme and 3.42ng/well of mouse NNMT enzyme for 30 minutes at room temperature. Reaction was initiated by addition of SAM and nicotinamide mixture (7µM, 20µM, 8µM SAM and 6µM, 20µM, 9µM nicotinamide for human, mouse and monkey NNMT assays respectively) and incubated for 60 minutes at 37°C. The final assay reaction mixture contained a buffer of 100mM Tris Hcl pH 7.5, 0.04% BSA, 2mM Dithiothreitol and 1% DMSO. The reaction was terminated by addition of Ethanol: Acetophenone mix (75% ethanol: 25% Acetophenone) and 5M potassium Hydroxide prepared with 50% Ethanol. The reaction was incubated for 15 minutes followed by addition of 100µl of 60% formic acid and further incubation for 60 minutes at room temperature. A fluorescent product 2, 7- naphthyridine was measured in a Tecan reader with excitation at 375nm and emission at 430nm. The IC50 values were determined by fitting the inhibition curves (percent inhibition versus inhibitor concentration) using a four parametric sigmoidal dose response in graph pad prism. […]

[2] = molecular target: T2, mouse NNMT (Mus musculus, UniProt O55239); experiment: Fluorescence-based NNMT enzymatic assay (mouse enzyme); format: biochemical; conditions: for IC50: read-out: mNNMT IC50
T2 sequence (O55239 1-264): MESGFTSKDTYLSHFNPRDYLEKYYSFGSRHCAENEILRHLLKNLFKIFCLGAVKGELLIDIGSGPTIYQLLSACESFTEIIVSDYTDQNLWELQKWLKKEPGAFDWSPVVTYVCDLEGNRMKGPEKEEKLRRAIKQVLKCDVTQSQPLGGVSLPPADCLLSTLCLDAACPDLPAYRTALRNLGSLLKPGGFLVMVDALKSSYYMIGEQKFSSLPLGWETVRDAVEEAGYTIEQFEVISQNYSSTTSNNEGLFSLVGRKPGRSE
Description: as §1, §2

[3] = Metabolic stability in human liver microsomes; format: in vitro ADME; design: HLM: unit not given beside the values; conditions: for remaining at 1 h: human liver microsomes, read-out: HLM % Remaining at 1 h; for HLM: Table 3, human liver microsome data, head HLM/MLM without unit
Description: (§3) Experimental Procedures S3: Metabolic stability in human and mouse liver microsomes
(§4) These profiling studies were carried out as described in Mullangi R. et. al. Preclinical assessment of
(§5) ulixertinib, a novel ERK1/2 inhibitor, ADMET & DMPK, 2017, 212-223;

[4] = Metabolic stability in mouse liver microsomes; format: in vitro ADME; conditions: for remaining at 1 h: mouse liver microsomes, read-out: MLM % Remaining at 1 h; for MLM: Table 3, mouse liver microsome data, head HLM/MLM without unit
Description: as §3, §4, §5

[5] = Metabolic stability in rat liver microsomes; format: in vitro ADME; conditions: read-out: RLM % Remaining at 1 h
[6] = Metabolic stability in liver microsomes (species not specified); format: in vitro ADME
Description: as §3, §4, §5

[7] = system: NNMT; conditions: substrate of NNMT; cited from earlier work
[8] = system: mice with diet-induced obesity; conditions: cited from earlier work

Row | Compound | IC50 [1] | IC50 [2] | hNNMT potency, in words [1] | remaining at 1 h [3] | remaining at 1 h [4] | further results
1 | Cc1nn(CC(C)(O)C(=O)N2CCN(c3cccc4cnccc34)CC2)cc1-c1ccccc1 (stereo not drawn) [Compound 1] | 0.26 µM | 0.84 µM |  |  |  | 
2 | CCn1c(=N)n2c3c(cccc31)CCC2 [Compound 3] | 0.2 µM | 0.5 µM |  |  |  | mode of inhibition ([1]; competition with substrates nicotinamide / SAM): competitive inhibitors either of nicotinamide alone
3 | Cc1nn(CC(C)(O)C(=O)N2CCN(c3ccc4[nH]ncc4c3)CC2)cc1-c1cccc(F)c1 (stereo not drawn) [Compound 19] | > 10 µM |  |  |  |  | 
4 | Cc1nn(CC(C)(O)C(=O)N2CC(c3cccc4[nH]c(=O)ccc34)C2)cc1-c1cccc(F)c1 (stereo not drawn) [Compound 27] |  |  | substantial loss of potency |  |  | IC50 ([1]; Table 3): > 30 µM
5 | Cc1nn(CC(C)(O)C(=O)N2CCN(c3c(C)sc4cnccc34)CC2)cc1-c1cccc(F)c1 (stereo not drawn) [Compound 14] | 0.49 µM | 3.48 µM |  | < 5% | < 5% | 
6 | COc1ccc(-c2cn(C[C@](C)(O)C(=O)N3CCN(c4cccc5cnccc45)CC3)nc2C)cc1 (stereo in doubt) [Compound 12] | 0.008 µM | 0.0008 µM | nanomolar potency |  |  | mNNMT potency, in words [2]: nanomolar potency
7 | Cc1nn(CC(C)(O)C(=O)N2CCN(c3cccc4[nH]c(=O)ccc34)CC2)cc1-c1cccc(F)c1 (stereo not drawn) [Compound 21] | 0.25 µM | 1.64 µM | reasonable potency | 20% | < 5% | remaining at 1 h [5]: < 5%; metabolic stability, in words [6]: did not improve
8 | Cc1nn(CC(C)(O)C(=O)N2CCC(O)(c3cccc4c[n+]([O-])ccc34)CC2)cc1-c1cccc(F)c1 (stereo not drawn) [Compound 32] |  |  | completely lost NNMT inhibition |  |  | IC50 ([1]; Table 3): > 30 µM; HLM [3]: 72; metabolic stability, in words ([3]; humans): improved metabolic stability; MLM [4]: 32; metabolic stability, in words ([4]; mice): improved metabolic stability
9 | Cc1nn(CC(C)(O)C(=O)N2CCN(c3cccc4cncnc34)CC2)cc1-c1cccc(F)c1 (stereo not drawn) [Compound 16] | 1.1 µM | 1.63 µM |  | < 5% | < 5% | remaining at 1 h [5]: < 5%
10 | Cc1nn(CC(C)(O)C(=O)N2CCN(c3ccc4cnccc4c3)CC2)cc1-c1cccc(F)c1 (stereo not drawn) [Compound 8] | > 10 µM |  | completely lost hNNMT activity | < 5% | < 5% | remaining at 1 h [5]: < 5%
11 | Cc1nn(CC(C)(O)C(=O)N2CCC(c3cccc4[nH]c(=O)ccc34)CC2)cc1-c1cccc(F)c1 (stereo not drawn) [Compound 25] |  |  |  |  |  | IC50 ([1]; Table 3): 0.75 µM; IC50 ([2]; Table 3): > 3 µM; reduction in mNNMT potency ([2]; compared to (21)): two-fold reduction; HLM [3]: 17; MLM [4]: < 5
12 | Cc1nn(CC(C)(O)C(=O)N2CC(c3cccc4cnccc34)C2)cc1-c1cccc(F)c1 (stereo not drawn) [Compound 29] |  |  |  |  |  | IC50 ([1]; Table 3): > 30 µM; HLM [3]: <5/<5; MLM [4]: <5/<5
13 | Cc1nn(CC(C)(O)C(=O)N2CCN(c3cccc4c(=O)[nH]ccc34)CC2)cc1-c1cccc(F)c1 (stereo not drawn) [Compound 22] | > 30 µM |  | not active | 16% | < 5% | remaining at 1 h [5]: 31%
14 | Cc1nn(CC(C)(O)C(=O)N2CCN(c3ccc4c(cnn4Cc4ccccc4)c3)CC2)cc1-c1cccc(F)c1 (stereo not drawn) [Compound 18] | > 30 µM |  |  | 35% | 30% | remaining at 1 h [5]: < 5%
15 | NC(=O)c1cccnc1 [nicotinamide] |  |  |  |  |  | Km [7]: 400 µM
16 | Cc1nn(CC(C)(O)C(=O)N2CCN(c3cccc4[nH]ncc34)CC2)cc1-c1cccc(F)c1 (stereo not drawn) [Compound 20] | > 3 µM |  |  | 18% | < 5% | 

Row | Compound | IC50 [1] | IC50 [2] | hNNMT potency, in words [1] | remaining at 1 h [3] | remaining at 1 h [4] | further results
17 | C[S+](CC[C@H](N)C(=O)[O-])C[C@H]1O[C@@H](n2cnc3c(N)ncnc32)[C@H](O)[C@@H]1O (stereo partly drawn) [SAM, S-adenosyl-methionine] |  |  |  |  |  | Km [7]: 1.8 µM
18 | Cc1nn(CC(C)(O)C(=O)N2CCC(O)(c3cccc4[nH]c(=O)ccc34)CC2)cc1-c1cccc(F)c1 (stereo not drawn) [Compound 30] |  |  | inactive |  |  | IC50 ([1]; Table 3): > 10 µM; HLM [3]: <5/<5; MLM [4]: <5/<5
19 | CC(O)(C/N=c1/sc2cccc3c2n1CCC3)C(=O)N1CCN(c2cccc3cnccc23)CC1 (stereo not drawn) [Compound 33] | 2.5 µM | 3 µM |  |  |  | 
20 | Cc1nn(CC(C)(O)C(=O)N2CCN(c3cccc4cnncc34)CC2)cc1-c1cccc(F)c1 (stereo not drawn) [Compound 15] | 0.79 µM | 5.1 µM |  | < 5% | < 5% | remaining at 1 h [5]: < 5%
21 | Cc1nn(CC(O)C(=O)N2CCN(c3cccc4cnccc34)CC2)cc1-c1cccc(F)c1.O=C(O)C(F)(F)F (stereo not drawn) [Compound 9] | 0.88 µM | 2.43 µM |  |  |  | reduction in potency on hNNMT [1]: three-fold reduction
22 | Cc1nn(CC(C)(O)C(=O)N2CCN(c3cccc4c3ccc(=O)n4C)CC2)cc1-c1cccc(F)c1 (stereo not drawn) [Compound 23] | 0.15 µM | 1 µM |  | < 5% | < 5% | metabolic stability, in words [6]: did not improve
23 | 5-amino-1-methylquinoline |  |  |  |  |  | body weight [8]: reduced body weight; glucose tolerance [8]: improved glucose tolerance; insulin sensitivity [8]: higher insulin sensitivity
24 | Cc1nn(CC(C)(O)C(=O)N2CCC(O)(c3cccc4cnccc34)CC2)cc1-c1cccc(F)c1 (stereo not drawn) [Compound 31] |  |  |  |  |  | IC50 ([1]; Table 3): 0.11 µM; increase in potency ([1]; comparator not stated): three-fold increase; IC50 ([2]; Table 3): 0.56 µM; HLM [3]: 23; MLM [4]: < 5; metabolic stability, in words [6]: insufficient for further profiling
25 | Cc1nn(CC(C)(O)C(=O)N2CCN(c3cccc4c3OCC(=O)N4)CC2)cc1-c1cccc(F)c1 (stereo not drawn) [Compound 24] | > 10 µM |  |  | < 5% | < 5% | 
26 | Cc1nn(CC(C)(O)C(=O)N2CCN(c3cnc4cnccn34)CC2)cc1-c1cccc(F)c1 (stereo not drawn) [Compound 17] | > 3 µM |  |  | 27% | 8% | remaining at 1 h [5]: < 5%
27 | Cc1nn(CC(C)(O)C(=O)N2CCN(c3cccc4cnccc34)CC2)cc1-c1ccc(F)c(F)c1 (stereo not drawn) [Compound 10] | 0.29 µM | > 3 µM |  | 7% | < 5% | 
28 | Cc1nn(CC(C)(O)C(=O)N2CCN(c3c(F)ccc4cnccc34)CC2)cc1-c1cccc(F)c1 (stereo not drawn) [Compound 11] | 0.2 µM | 1.87 µM | retains potency | < 5% | < 5% | mNNMT potency, in words [2]: retains potency
29 | Cc1nn(CCC(=O)N2CCN(c3cccc4cnccc34)CC2)cc1-c1ccccc1 [Compound 6] | 1.67 µM | 2.2 µM |  |  |  | reduction in potency on hNNMT [1]: six-fold reduction; reduction in potency on mouse NMMT (mNNMT) ([2]; relative to (1)): 2.5 fold
30 | COc1ccc(C(N)=O)cn1 [6-methoxynicotinamide] |  |  |  |  |  | body weight [8]: reduced body weight; glucose tolerance [8]: improved glucose tolerance; insulin sensitivity [8]: higher insulin sensitivity
31 | Cc1nn(CC(C)(O)C(=O)N2CCCN(c3cccc4[nH]c(=O)ccc34)CC2)cc1-c1cccc(F)c1 (stereo not drawn) [Compound 28] |  |  | substantial loss of potency |  |  | IC50 ([1]; Table 3): > 3 µM; IC50 ([2]; Table 3): > 30 µM
32 | Cc1nn(CC(C)(O)C(=O)N2CCC(C3=CC=CC4NC(=O)C=CC34)C2)cc1-c1cccc(F)c1 (stereo not drawn) [Compound 26] |  |  | substantial loss of potency |  |  | IC50 ([1]; Table 3): > 10 µM; HLM [3]: 12; MLM [4]: < 5

From publication PMC7918612, “Novel Inhibitors of Nicotinamide-N-Methyltransferase for the Treatment of Metabolic Disorders” (Molecules, 2021)
